Test results taken from patent publication US20240190871A1, “KRASG12D INHIBITOR, PREPARATION METHOD THEREFOR AND APPLICATION THEREOF” (YA THERAPEUTICS INC, priority 2021, published 2024).

tested on: ATCC CRL-1739 (KRASG^12D mutant) cells; assay: Tumor cell proliferation inhibition experiment (Cell Titer-Glo, 72 hours); assay type: cell-based; conditions: 72 hours incubation, 10% fetal bovine serum, ATP content
Description: The ATCC CRL-1739 (KRASG^12D mutant) cells were digested, centrifuged and resuspended, and the cell density was measured with a Scepter automatic cell counter. The cells were diluted to a solution containing 44,000 cells per milliliter, and the density-adjusted cell solution was 90 per well. Microliters were added to a 96-well culture plate. The 96-well plate was placed in a 37° C., 5% CO2 incubator. After the cells were cultured for 24 hours, different concentrations of the compounds to be tested were added. The cells were incubated with the compounds for 72 hours in the presence of 10% fetal bovine serum. Glo Luminescent Cell Viability Assay Kit (see manufacturer's instructions for details) was used to measure ATP content to assess cell growth inhibition. Briefly, 30 μl of Cell Titer-Glo reagent was added to each well, and the plate was shaken for 10 minutes to induce cell lysis. FluoroskanAscentFL (Thermo) assay records the […], and the maximum signal value is obtained from cells treated with DMSO for 72 hours. The minimum signal value was obtained from the medium alone (the number of cells was zero), and the % inhibition rate=(the maximum signal value compound signal value)/(the maximum signal value−the minimum signal value×100%, and the data were processed using Graphpadprism 5 software. By sigmoid Dose-response curve fitting to calculate IC50 value. “A” means IC50≤50 nM; “B” means 50<IC50≤500 nM; “C” means 500<IC50≤2000 nM; “D” means 2000<IC50

| Compound | IC50 [nM] |
| --- | --- |
| C[C@@H]1CNCCN1c1nc(OC[C@@H]2CCCN2C)nc2nc(-c3ccc4ccccc4c3)c(F)cc12 [Compound 37, 6-fluoro-4-((R)-2-methylpiperazin-1-y1)-2-(((S)-1-methylpyrrolidin-2-yl)methoxy)-7-(naphthalen-2-yl)pyrido[2,3-d]pyrimidine] | > 2000 |
| C[C@@H]1CNCCN1c1nc(OC[C@@H]2CCCN2C)nc2nc(-c3cccc4ccsc34)c(F)cc12 [Compound 38, 7-(benzo[b]thiophen-7-yl)-6-fluoro-4-((R)-2-methylpiperazin-1-y1)-2-(((S)-1-methylpyrrolidin-2-yl)methoxy)pyrido [2,3-d]pyrimidine] | > 2000 |
| C[C@@H]1CNCCN1c1nc(OC[C@@H]2CCCN2C)nc2nc(-c3cccc4cccnc34)c(F)cc12 [Compound 39, 6-fluoro-4-((R)-2-methylpiperazin-1-yl)-2-(((S)-1-methylpyrrolidin-2-yl)methoxy)-7-(quinolin-8-yl)pyrido[2,3-d]pyrimidine] | > 2000 |
| C[C@@H]1CNCCN1c1nc(OC[C@@H]2CCCN2C)nc2nc(-c3cccc4ccncc34)c(F)cc12 [Compound 43, 6-fluoro-7-(isoquinolin-8-y1)-4-((R)-2-methylpiperazin-1-y1)-2-(((S)-1-methylpyrrolidin-2-yl)methoxy)pyrido [2,3-d]pyrimidine] | 500 to 2000 |
| CN1CCC[C@H]1COc1nc(N2C3CNCC2C3)c2cc(F)c(-c3cc(O)cc4cccc(Cl)c34)nc2n1 [Compound 47, 4-(4-(3,6-diazabicyclo[3.1.1]heptan-6-yl)-6-fluoro-2-(((S)-1-methylpyrrolidin-2-yl)methoxy)pyrido [2,3-d]pyrimidin-7-yl)-5-chloronaphthalen-2-ol] | 50 to 500 |
| CN1CCC[C@H]1COc1nc(N2C3CNCC2C3)c2cc(F)c(-c3cc(O)cc4cccc(F)c34)nc2n1 [Compound 48, 4-(4-(3,6-diazabicyclo[3.1.1]heptan-6-yl)-6-fluoro-2-(((S)-1-methylpyrrolidin-2-yl)methoxy)pyrido [2,3-d]pyrimidin-7-yl)-5-fluoronaphthalen-2-ol] | ≤ 50 |
| CN1C[C@H](F)C[C@H]1COc1nc(N2C3CNCC2C3)c2cc(F)c(-c3cc(O)cc4cccc(F)c34)nc2n1 [Compound 49, 4-(4-(3,6-diazabicyclo[3.1.1]heptan-6-yl)-6-fluoro-2-(((2S,4R)-4-fluoro-1-methylpyrrolidin-2-yl)methoxy)pyrido [2,3-d]pyrimidin-7-y1)-5-fluoronaphthalen-2-ol] | 500 to 2000 |
| Oc1cc(-c2nc3nc(OC[C@@H]4C[C@@H](F)CN4C4CC4)nc(N4C5CNCC4C5)c3cc2F)c2c(F)cccc2c1 [Compound 50, 4-(4-(3,6-diazabicyclo[3.1.1]heptan-6-yl)-2-(((2S,4R)-1-cyclopropyl-4-fluoropyrrolidin-2-yl)methoxy)-6-fluoropyrido[2,3-d]pyrimidin-7-yl)-5-fluoronaphthalen-2-ol] | 500 to 2000 |
| Oc1cc(-c2nc3nc(OCC4(CN5CCCC5)CC4)nc(N4C5CNCC4C5)c3cc2F)c2c(F)cccc2c1 [Compound 51, 4-(4-(3,6-diazabicyclo[3.1.1]heptan-6-yl)-6-fluoro-2-((1-(pyrrolidin-1-ylmethyl)cyclopropyl)methoxy)pyrido[2,3-d]pyrimidin-7-yl)-5-fluoronaphthalen-2-ol] | 50 to 500 |
| Oc1cc(-c2nc3nc(OCC4(CN5CC[C@@H](F)C5)CC4)nc(N4C5CNCC4C5)c3cc2F)c2c(F)cccc2c1 [Compound 52, 4-(4-(3,6-diazabicyclo[3.1.1]heptan-6-yl)-6-fluoro-2-((1-(((R)-3-fluoropyrrolidin-1-yl)methyl)cyclopropyl)methoxy)pyrido[2,3-d]pyrimidin-7-yl)-5-fluoronaphthalen-2-ol] | 50 to 500 |
| Oc1cc(-c2nc3nc(OC[C@@]45CCCN4C[C@H](F)C5)nc(N4C5CNCC4C5)c3cc2F)c2c(Cl)cccc2c1 [Compound 53, 4-(4-(3,6-diazabicyclo[3.1.1]heptan-6-yl)-6-fluoro-2-(((2R,7aS)-2-fluorohexahydro-1H-pyrrolizin-7a-yl)methoxy)pyrido[2,3-d]pyrimidin-7-yl)-5-chloronaphthalen-2-ol] | ≤ 50 |
| Oc1cc(-c2nc3nc(OC[C@@]45CCCN4C[C@H](F)C5)nc(N4C[C@H]5CC[C@@H](C4)N5)c3cc2F)c2c(Cl)cccc2c1 [Compound 55, 4-(4-((1R,5S)-3,8-diazabicyclo [3.2.1]octan-3-yl)-6-fluoro-2-(((2R,7aS)-2-fluorohexahydro-1H-pyrrolizin-7a-yl)methoxy)pyrido[2,3-d]pyrimidin-7-yl)-5-chloronaphthalen-2-ol] | ≤ 50 |
| Oc1cc(-c2nc3nc(OC[C@@]45CCCN4CC(F)C5)nc(N4CC5CCC(C4)N5)c3cc2F)c2c(F)cccc2c1 (stereo partly drawn) [Compound 56, 4-(4-((1R,5S)-3,8-diazabicyclo [3.2.1]octan-3-yl)-6-fluoro-2-(((2R,7aS)-2-fluorohexahydro-1H-pyrrolizin-7a-yl)methoxy)pyrido[2,3-d]pyrimidin-7-y1)-5-fluoronaphthalen-2-ol] | ≤ 50 |

Next, values leading:

| IC50 [nM] | Compound |
| --- | --- |
| > 2000 | C[C@@H]1CNCCN1c1nc(OCCN(C)C)nc2nc(-c3c(O)cccc3F)c(F)cc12 [Compound 2, 2-(2-(2-(dimethylamino)ethoxy)-6-fluoro-4-((R)-2-methylpiperazin-1-yl)pyrido[2,3-d]pyrimidin-7-yl)-3-fluorophenol] |
| > 2000 | C[C@@H]1CNCCN1c1nc(OC[C@@H]2CCCN2C)nc2nc(-c3ccccc3Cl)c(F)cc12 [Compound 32, 7-(2-chlorophenyl)-6-fluoro-4-((R)-2-methylpiperazin-1-yl)-2-(((S)-1-methylpyrrolidin-2-yl)methoxy)pyrido [2,3-d]pyrimidine] |
| > 2000 | C[C@@H]1CNCCN1c1nc(OC[C@@H]2CCCN2C)nc2nc(-c3cccc4ccccc34)c(F)cc12 [Compound 35, 6-fluoro-4-((R)-2-methylpiperazin-1-yl)-2-(((S)-1-methylpyrrolidin-2-yl)methoxy)-7-(naphthalen-1-yl)pyrido[2,3-d]pyrimidine] |
| > 2000 | C[C@@H]1CNCCN1c1nc(OC[C@@H]2CCCN2C)nc2nc(-c3cccc4ccoc34)c(F)cc12 [Compound 40, 7-(benzofuran-7-yl)-6-fluoro-4-((R)-2-methylpiperazin-1-yl)-2-(((S)-1-methylpyrrolidin-2-yl)methoxy)pyrido [2,3-d]pyrimidine] |
| > 2000 | C[C@@H]1CNCCN1c1nc(OC[C@@H]2CCCN2C)nc2nc(-c3cccc4c3ccn4C)c(F)cc12 [Compound 41, 6-fluoro-7-(1-methyl-1H-indol-4-yl)-4-((R)-2-methylpiperazin-1-yl)-2-(((S)-1-methylpyrrolidin-2-yl)methoxy)pyrido [2,3-d]pyrimidine] |
| > 2000 | C[C@@H]1CNCCN1c1nc(OC[C@@H]2CCCN2C)nc2nc(-c3cccc4c3cnn4C)c(F)cc12 [Compound 42, 6-fluoro-7-(1-methyl-1H-indazol-4-yl)-4-((R)-2-methylpiperazin-1-yl)-2-(((S)-1-methylpyrrolidin-2-yl)methoxy)pyrido [2,3-d]pyrimidine] |
| 500 to 2000 | C[C@@H]1CNCCN1c1nc(OC[C@@H]2CCCN2C)nc2nc(-c3cccc4ncccc34)c(F)cc12 [Compound 44, 6-fluoro-4-((R)-2-methylpiperazin-1-y1)-2-(((S)-1-methylpyrrolidin-2-yl)methoxy)-7-(quinolin-5-yl)pyrido[2,3-d]pyrimidine] |
